Experimental data published in patent publication US20240115745A1, “COMPOUNDS COMPRISING A FIBROBLAST ACTIVATION PROTEIN LIGAND AND USE THEREOF” (3B PHARMACEUTICALS GMBH, priority 2021, published 2024).
Where two headings read alike, the source gives them in different places. *1 amine or outer side, *2 acyl side, *3 side chain or, on linkers, in order; H or OH if unused. Where a SMILES comes first, the peptide text is derived from it. Bridges are numbered along the chain shown (N, C = ends). [ ]: non-standard residue; d: D form. The star is where a group is joined. ξ: configuration not given here. X4 = O=C(O)CN1CCN(CC(=O)O)CCN(CC(=O)NCCCOCCOCCOCCCN*)CCN(CC(=O)O)CC1; X1 = NC(=O)CC[C@H](N[*:1])C(=O)C[C@@H](Cc1ccccc1)C(=O)[*:2]; X11 = O=C(O)CN1CCN(CC(=O)O)CCN([C@H](CCC(=O)*)C(=O)O)CC1; DOTA = O=C(O)CN1CCN(CC(=O)O)CCN(CC(=O)*)CCN(CC(=O)O)CC1; Maleimide(3,4-diyl) = O=C1NC(=O)C([*:2])=C1[*:1]; X9 = O=C(C1CCC[C@H]1C(=O)[*:2])[C@@H]1CCCN1[*:1]; X8 = NCCNCC(CNCCN)C(=O)NCCCOCCOCCOCCCN*; X7 = CN1C(=O)C([*:1])=C([*:2])C1=O; ξThr(3R) = C[C@@H](O)C(N)C(=O)O; Suc = O=C(CCC(=O)[*:2])[*:1]; 4Amb = NCc1ccc(C(=O)O)cc1; hCys = N[C@@H](CCS)C(=O)O; Nle = CCCC[C@H](N)C(=O)O; X3 = NCCNCC(CNCCN)C(=O)*; Hexanoyl = CCCCCC(=O)*; AEEA = NCCOCCOCC(=O)O; CO = O=C([*:1])[*:2]; ξP = O=C(O)C1CCCN1; βAla = NCCC(=O)O; NHBu = CCCCN*

What was measured:
[1] = molecular target: T1, FAP-expressing human WI-38 fibroblasts (Homo sapiens, UniProt Q12884); assay: Competitive FACS binding assay;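 further: flow cytometry read-out of median Cy5 fluorescence on the cells, plotted versus test compound concentration, with IC50 derived by four-parameter logistic curve fitting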
T1 construct: FAP-expressing human WI-38 fibroblasts (ECACC) were cultured in EMEM; host or cells: WI-38 human fibroblasts
T1 sequence (Q12884 whole entry): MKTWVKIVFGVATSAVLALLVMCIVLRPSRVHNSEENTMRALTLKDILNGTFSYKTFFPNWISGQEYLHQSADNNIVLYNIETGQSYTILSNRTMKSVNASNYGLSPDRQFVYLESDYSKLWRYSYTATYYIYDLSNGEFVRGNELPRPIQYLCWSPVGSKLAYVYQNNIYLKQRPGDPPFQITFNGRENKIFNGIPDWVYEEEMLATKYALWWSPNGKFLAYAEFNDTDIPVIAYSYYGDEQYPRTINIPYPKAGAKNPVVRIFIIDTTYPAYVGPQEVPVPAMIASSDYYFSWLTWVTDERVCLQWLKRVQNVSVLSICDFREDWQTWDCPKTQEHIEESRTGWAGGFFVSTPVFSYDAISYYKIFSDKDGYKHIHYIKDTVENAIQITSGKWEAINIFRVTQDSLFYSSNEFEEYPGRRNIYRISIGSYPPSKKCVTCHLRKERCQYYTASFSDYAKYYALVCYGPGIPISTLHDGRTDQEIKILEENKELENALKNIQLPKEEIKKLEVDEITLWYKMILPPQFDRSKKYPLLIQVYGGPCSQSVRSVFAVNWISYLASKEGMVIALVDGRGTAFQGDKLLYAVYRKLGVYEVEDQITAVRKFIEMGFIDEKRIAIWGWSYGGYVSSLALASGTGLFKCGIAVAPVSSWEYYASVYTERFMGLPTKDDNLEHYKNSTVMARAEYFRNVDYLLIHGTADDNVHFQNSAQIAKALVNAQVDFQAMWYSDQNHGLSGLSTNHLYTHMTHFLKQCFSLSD

Recombinant human FAP = molecular target: T2, Recombinant human FAP (Homo sapiens, UniProt Q12884); assay: FRET-based FAP protease activity assay; type: biochemical
T2 construct: purchased R&D systems 3715-SE
T2 sequence (Q12884 26-760 limits assumed): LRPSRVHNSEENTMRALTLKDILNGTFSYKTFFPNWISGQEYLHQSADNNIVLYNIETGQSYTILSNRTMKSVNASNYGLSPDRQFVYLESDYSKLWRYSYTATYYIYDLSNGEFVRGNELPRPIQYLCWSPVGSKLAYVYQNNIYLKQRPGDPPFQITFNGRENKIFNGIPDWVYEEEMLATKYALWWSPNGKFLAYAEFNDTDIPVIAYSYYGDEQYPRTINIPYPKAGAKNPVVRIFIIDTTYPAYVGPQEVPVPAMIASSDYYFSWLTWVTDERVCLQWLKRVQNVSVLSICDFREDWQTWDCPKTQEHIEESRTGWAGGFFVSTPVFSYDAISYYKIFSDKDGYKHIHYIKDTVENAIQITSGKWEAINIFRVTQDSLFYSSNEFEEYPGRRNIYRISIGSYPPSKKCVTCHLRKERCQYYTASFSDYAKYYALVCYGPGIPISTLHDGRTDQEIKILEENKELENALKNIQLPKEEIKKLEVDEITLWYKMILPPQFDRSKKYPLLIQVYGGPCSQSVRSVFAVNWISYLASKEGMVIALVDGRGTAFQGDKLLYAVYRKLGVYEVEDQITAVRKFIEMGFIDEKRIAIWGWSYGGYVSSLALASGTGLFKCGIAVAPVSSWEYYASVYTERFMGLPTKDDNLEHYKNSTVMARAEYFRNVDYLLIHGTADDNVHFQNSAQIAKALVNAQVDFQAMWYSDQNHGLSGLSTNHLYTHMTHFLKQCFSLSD

[2] = competition with 3 nM Cy5-labeled compound, WI-38 fibroblasts, 4° C., 1 hour, read-out: pIC50 Category (FACS) (converted)
[3] = recombinant human FAP, FRET-peptide substrate, 37° C., read-out: pIC50 Category (Activity) (converted)
[4] = read-out: pIC50 (highest activity categories, FACS binding) (converted)
[5] = read-out: pIC50 (highest activity categories, FAP activity) (converted)

SMILES	IC50 [1, 2] [nM]	IC50 (Recombinant human FAP; [3]) [nM]	IC50 [1, 4] [nM]	IC50 (Recombinant human FAP; [5]) [nM]
CCCC[C@H](NC(=O)CCC(=O)NCCCOCCOCCOCCCNC(=O)C(CNCCN)CNCCN)C(=O)N[C@H]1CSSC[C@@H](C(=O)NCCC(=O)O)NC(=O)[C@H](Cc2ccccc2)NC(=O)[C@H](CCC(N)=O)NC(=O)[C@H]([C@@H](C)O)NC(=O)[C@@H]2CCCC2C(=O)[C@@H]2CCCN2C1=O (stereo partly drawn) [Compound 1019, N4Ac-Ttds-Nle-[Cys-Pro-Pro-Thr-Gln-Phe-Cys]-Bal-OH] ({X8-Suc}-[Nle]C[X9]TQFC[βAla]-OH; disulfide 2-7)	< 100	< 100	–	–
CCCCCC(=O)N[C@H]1CSSC[C@@H](C(=O)N[C@@H](CC(=O)O)C(=O)N[C@@H](CCCCNC(=O)CC[C@H](C(=O)O)N2CCN(CC(=O)O)CCN(CC(=O)O)CC2)C(N)=O)NC(=O)[C@H](Cc2ccccc2)NC(=O)[C@H](CCC(=O)O)NC(=O)[C@H]([C@@H](C)O)NC(=O)[C@@H]2CCCN2C(=O)[C@@H]2CCCN2C1=O [Compound 1020, Hex-[Cys-Pro-Pro-Thr-Glu-Phe-Cys]-Asp-Lys(NODAGA)-NH2] (Hexanoyl-CPPTEFCDK(X11)-NH2; disulfide 1-7)	< 100	< 100	–	–
CCCCCC(=O)N[C@H]1CSSC[C@@H](C(=O)N[C@@H](CC(=O)O)C(=O)N[C@@H](CCCCNC(=O)C(CNCCN)CNCCN)C(N)=O)NC(=O)[C@H](Cc2ccccc2)NC(=O)[C@H](CCC(=O)O)NC(=O)[C@H]([C@@H](C)O)NC(=O)[C@@H]2CCCN2C(=O)[C@@H]2CCCN2C1=O [Compound 1021, Hex-[Cys-Pro-Pro-Thr-Glu-Phe-Cys]-Asp-Lys(N4Ac)—NH2] (Hexanoyl-CPPTEFCDK(X3)-NH2; disulfide 1-7)	< 100	< 100	–	–
CCCCCC(=O)N[C@H]1CSC2=C(SC[C@@H](C(=O)N[C@@H](CC(=O)O)C(N)=O)NC(=O)[C@H](Cc3ccccc3)NC(=O)[C@H](CCC(N)=O)NC(=O)[C@H]([C@@H](C)O)NC(=O)[C@@H]3CCCN3C(=O)[C@@H]3CCCN3C1=O)C(=O)NC2=O [Compound 2001, Hex-[Cys(mli)-Pro-Pro-Thr-Gln-Phe-Cys]-Asp-NH2] (HELM PEPTIDE1{[CCCCCC(=O)[*:2]].C.P.P.T.Q.F.C.D.[am]}|CHEM1{[O=C1NC(=O)C([*:2])=C1[*:1]]}$PEPTIDE1,CHEM1,2:R3-1:R1|PEPTIDE1,CHEM1,8:R3-1:R2$$$V2.0)	< 100	< 100	–	–
CCCCCC(=O)N[C@H]1CCSSCC[C@@H](C(=O)N[C@@H](CC(=O)O)C(N)=O)NC(=O)[C@H](Cc2ccccc2)NC(=O)[C@H](CCC(N)=O)NC(=O)[C@H]([C@@H](C)O)NC(=O)[C@@H]2CCCN2C(=O)[C@@H]2CCCN2C1=O [Compound 2002, Hex-[Hcy-Pro-Pro-Thr-Gln-Phe-Hcy]-Asp-NH2] (Hexanoyl-[hCys]PPTQF[hCys]D-NH2; disulfide 1-7)	< 100	< 100	–	–
CCCC[C@H](NC(=O)CN1CCN(CC(=O)O)CCN(CC(=O)O)CCN(CC(=O)O)CC1)C(=O)N[C@H]1CSC2=C(SC[C@@H](C(=O)N[C@@H](CC(=O)O)C(N)=O)NC(=O)[C@H](Cc3ccccc3)CC(=O)[C@H](CCC(N)=O)NC(=O)[C@H]([C@@H](C)O)NC(=O)[C@@H]3CCCN3C(=O)[C@@H]3CCCN3C1=O)C(=O)NC2=O [Compound 2003, DOTA-Nle-[Cys(mli)-Pro-Pro-Thr-Gln-Phe-Cys]-Asp-NH2] ({DOTA}-[Nle]CPPT[X1]CD-NH2; linker 2-7 via Maleimide(3,4-diyl))	< 100	< 100	–	–
CCCC[C@H](NC(=O)COCCOCCNC(=O)CN1CCN(CC(=O)O)CCN(CC(=O)O)CCN(CC(=O)O)CC1)C(=O)N[C@H]1CSC2=C(SC[C@@H](C(=O)N[C@@H](CC(=O)O)C(N)=O)NC(=O)[C@H](Cc3ccccc3)CC(=O)[C@H](CCC(N)=O)NC(=O)[C@H]([C@@H](C)O)NC(=O)[C@@H]3CCCN3C(=O)[C@@H]3CCCN3C1=O)C(=O)NC2=O [Compound 2004, DOTA-O2Oc-Nle-[Cys(mli)-Pro-Pro-Thr-Gln-Phe-Cys]-Asp-NH2] ({DOTA-AEEA}-[Nle]CPPT[X1]CD-NH2; linker 2-7 via Maleimide(3,4-diyl))	< 100	< 100	< 100	< 100
CCCC[C@H](NC(=O)CCC(=O)NCCCOCCOCCOCCCNC(=O)CN1CCN(CC(=O)O)CCN(CC(=O)O)CCN(CC(=O)O)CC1)C(=O)N[C@H]1CSC2=C(SC[C@@H](C(=O)N[C@@H](CC(=O)O)C(N)=O)NC(=O)[C@H](Cc3ccccc3)CC(=O)[C@H](CCC(N)=O)NC(=O)[C@H]([C@@H](C)O)NC(=O)[C@@H]3CCCN3C(=O)[C@@H]3CCCN3C1=O)C(=O)NC2=O [Compound 2005, DOTA-Ttds-Nle-[Cys(mli)-Pro-Pro-Thr-Gln-Phe-Cys]-Asp-NH2]	< 100	< 100	< 100	< 100
CCCC[C@H](NC(=O)CCC(=O)NCCCOCCOCCOCCCNC(=O)CN1CCN(CC(=O)O)CCN(CC(=O)O)CCN(CC(=O)O)CC1)C(=O)N[C@H]1CSC2=C(SC[C@@H](C(=O)N[C@@H](CC(=O)O)C(=O)NCc3ccc(C(=O)N[C@@H](CCCNC(=N)N)C(N)=O)cc3)NC(=O)[C@H](Cc3ccccc3)CC(=O)[C@H](CCC(N)=O)NC(=O)[C@H]([C@@H](C)O)NC(=O)[C@@H]3CCCN3C(=O)[C@@H]3CCCN3C1=O)C(=O)NC2=O [Compound 2006, DOTA-Ttds-Nle-[Cys(mli)-Pro-Pro-Thr-Gln-Phe-Cys]-Asp-Pamb-Arg-NH2] ({X4-Suc}-[Nle]CPPT[X1]CD[4Amb]R-NH2; linker 2-7 via Maleimide(3,4-diyl))	< 100	< 100	–	–
CCCC[C@H](NC(=O)CCC(=O)NCCCOCCOCCOCCCNC(=O)CN1CCN(CC(=O)O)CCN(CC(=O)O)CCN(CC(=O)O)CC1)C(=O)N[C@H]1CSC2=C(SC[C@@H](C(=O)O)NC(=O)[C@H](Cc3ccccc3)CC(=O)[C@H](CCC(N)=O)NC(=O)[C@H]([C@@H](C)O)NC(=O)[C@@H]3CCCN3C(=O)[C@@H]3CCCN3C1=O)C(=O)NC2=O [Compound 2008, DOTA-Ttds-Nle-[Cys(mli)-Pro-Pro-Thr-Gln-Phe-Cys]-OH]	< 100	< 100	–	–
CCCC[C@H](NC(=O)CCC(=O)NCCCOCCOCCOCCCNC(=O)CN1CCN(CC(=O)O)CCN(CC(=O)O)CCN(CC(=O)O)CC1)C(=O)N[C@H]1CSC2=C(SC[C@@H](C(=O)NCCC(=O)O)NC(=O)[C@H](Cc3ccccc3)CC(=O)[C@H](CCC(N)=O)NC(=O)[C@H]([C@@H](C)O)NC(=O)[C@@H]3CCCN3C(=O)[C@@H]3CCCN3C1=O)C(=O)NC2=O [Compound 2009, DOTA-Ttds-Nle-[Cys(mli)-Pro-Pro-Thr-Gln-Phe-Cys]-Bal-OH]	< 100	< 100	–	–
CCCCCC(=O)N[C@H]1CSC2=C(SC[C@@H](C(=O)N[C@@H](CCCCNC(=O)CN3CCN(CC(=O)O)CCN(CC(=O)O)CCN(CC(=O)O)CC3)CC(=O)O)NC(=O)[C@H](Cc3ccccc3)NC(=O)[C@H](CCC(N)=O)NC(=O)[C@H]([C@@H](C)O)NC(=O)[C@@H]3CCCN3C(=O)[C@@H]3CCCN3C1=O)C(=O)NC2=O [Compound 2010, Hex-[Cys(mli)-Pro-Pro-Thr-Gln-Phe-Cys]-Bhk(DOTA)-OH]	< 100	< 100	–	–
CCCCCC(=O)N[C@H]1CSC2=C(SC[C@@H](C(=O)N[C@@H](CC(=O)O)C(=O)N[C@@H](CCCCNC(=O)CN3CCN(CC(=O)O)CCN(CC(=O)O)CCN(CC(=O)O)CC3)C(N)=O)NC(=O)[C@H](Cc3ccccc3)NC(=O)[C@H](CCC(N)=O)NC(=O)[C@H]([C@@H](C)O)NC(=O)[C@@H]3CCCN3C(=O)C3CCCN3C1=O)C(=O)NC2=O (stereo partly drawn) [Compound 2012, Hex-[Cys(mli)-Pro-Pro-Thr-Gln-Phe-Cys]-Asp-Lys(DOTA)-NH2] (Hexanoyl-C[ξP]PTQFCDK(DOTA)-NH2; linker 1-7 via Maleimide(3,4-diyl))	< 100	< 100	–	–
CCCCNC(=O)N[C@H]1CSC2=C(SC[C@@H](C(=O)N[C@@H](CC(=O)O)C(=O)N[C@@H](CCCCNC(=O)CN3CCN(CC(=O)O)CCN(CC(=O)O)CCN(CC(=O)O)CC3)C(N)=O)NC(=O)[C@H](Cc3ccccc3)NC(=O)[C@H](CCC(N)=O)NC(=O)C([C@@H](C)O)NC(=O)[C@@H]3CCCN3C(=O)[C@@H]3CCCN3C1=O)C(=O)NC2=O (stereo partly drawn) [Compound 2014, Buur-[Cys(mli)-Pro-Pro-Thr-Gln-Phe-Cys]-Asp-Lys(DOTA)-NH2] ({NHBu-CO}-CPP[ξThr(3R)]QFCDK(DOTA)-NH2; linker 1-7 via Maleimide(3,4-diyl))	< 100	< 100	–	–
CCCCNC(=O)N[C@H]1CSC2=C(SC[C@@H](C(=O)N[C@@H](CC(=O)O)C(=O)N[C@@H](CCCCNC(=O)CN3CCN(CC(=O)O)CCN(CC(=O)O)CCN(CC(=O)O)CC3)C(N)=O)NC(=O)[C@H](Cc3ccccc3)NC(=O)[C@H](CCC(N)=O)NC(=O)C([C@@H](C)O)NC(=O)[C@@H]3CCCN3C(=O)[C@@H]3CCCN3C1=O)C(=O)N(C)C2=O (stereo partly drawn) [Compound 2015, Hex-[Cys(mli(Me))-Pro-Pro-Thr-Gln-Phe-Cys]-Asp-Lys(DOTA)-NH2] ({NHBu-CO}-CPP[ξThr(3R)]QFCDK(DOTA)-NH2; linker 1-7 via X7)	< 100	< 100	–	–
CCCC[C@H](NC(=O)CCC(=O)NCCCOCCOCCOCCCNC(=O)CN1CCN(CC(=O)O)CCN(CC(=O)O)CCN(CC(=O)O)CC1)C(=O)N[C@H]1CSC2=C(SC[C@@H](C(=O)N[C@@H](CC(=O)O)C(N)=O)NC(=O)[C@H](Cc3ccccc3)NC(=O)[C@H](CCC(N)=O)NC(=O)[C@H]([C@@H](C)O)NC(=O)[C@@H]3CCCN3C(=O)[C@@H]3CCCN3C1=O)C(=O)N(C)C2=O [Compound 2016, DOTA-Ttds-Nle-[Cys(mli(Me))-Pro-Pro-Thr-Gln-Phe-Cys]-Asp-NH2] ({X4-Suc}-[Nle]CPPTQFCD-NH2; linker 2-8 via X7)	< 100	< 100	–	–
